Reference: patent publication US11230543B2, “Biaryl monobactam compounds and methods of use thereof for the treatment of bacterial infections” (priority 2015, dated 2022)
Structures can show the parent of a compound that is named as a salt.

Assays:
[1] = tested on: Klebsiella pneumoniae expressing KPC-1 (CL6569); assay: Antibiotic activity: growth inhibitory concentration (OD600), Klebsiella pneumoniae CL6569; type: cell-based; conditions: lowest concentration inhibiting 95% of bacterial growth; in the presence of β lactamase inhibitor Relebactam 4 μg/mL; 35±2° C. for 22 hours; tested range 100 μM to 0.098 μM
Method in brief: (§1)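 Clinical strains at ~2×10^5 CFU/mL in cation-adjusted Mueller-Hinton II broth, with relebactam at 4 μg/mL final; compounds 100 μM to 0.098 μM final. After 22 hours at 35±2° C, OD600 read; MITC95 is lowest concentration giving 95% growth inhibition.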

[2] = tested on: Pseudomonas aeruginosa expressing AmpC (CL5701); assay: Antibiotic activity: growth inhibitory concentration (OD600), Pseudomonas aeruginosa CL5701; type: cell-based; conditions: lowest concentration inhibiting 95% of bacterial growth; in the presence of β lactamase inhibitor Relebactam 4 μg/mL; 35±2° C. for 22 hours; tested range 100 μM to 0.098 μM
Method in brief: as §1

| Structure (SMILES) | KP_CL6569 MITC95 [1] | PA_CL5701 MITC95 [2] |
| --- | --- | --- |
| C[n+]1cc(-c2ccc(OC[C@H](O/N=C(\C(=O)N[C@@H]3C(=O)N(OS(=O)(=O)[O-])C3(C)C)c3nc(N)sc3Cl)C(=O)O)cc2)ccc1NCCN [Example 67, (S)-3-((Z)-2-(2-amino-5-chlorothiazol-4-yl)-2-(((S)-2-(4-(6-((2-aminoethyl)amino)-1-methylpyridin-1-ium-3-yl)phenoxy)-1-carboxyethoxy)imino)acetamido)-2,2-dimethyl-4-oxoazetidin-1-yl sulfate] | 0.7813 µM | 6.25 µM |
| C[n+]1cc(-c2ccc(OC[C@H](O/N=C(\C(=O)N[C@@H]3C(=O)N(OS(=O)(=O)[O-])C3(C)C)c3csc(N)n3)C(=O)O)cc2)cn1CCN [Example 17, (S)-3-((Z)-2-(((S)-2-(4-(1-(2-aminoethyl)-2-methyl-1H-pyrazol-2-ium-4-yl)phenoxy)-1-carboxyethoxy)imino)-2-(2-aminothiazol-4-yl)acetamido)-2,2-dimethyl-4-oxoazetidin-1-yl sulfate] | 0.3906 µM | 6.25 µM |
| CC1(C)[C@H](NC(=O)/C(=N\O[C@@H](COc2ccc(-c3cn(CCCN)[n+](CC4CNC4)c3)cc2)C(=O)O)c2csc(N)n2)C(=O)N1OS(=O)(=O)[O-] [Example 97, (S)-3-((Z)-2-(((S)-2-(4-(1-(3-aminopropyl)-2-(azetidin-3-ylmethyl)-1H-pyrazol-2-ium-4-yl)phenoxy)-1-carboxyethoxy)imino)-2-(2-aminothiazol-4-yl)acetamido)-2,2-dimethyl-4-oxoazetidin-1-yl sulfate] | 0.125 µM | 1.781 µM |
| C[n+]1c(N)c(-c2ccc(OC[C@H](O/N=C(\C(=O)N[C@@H]3C(=O)N(OS(=O)(=O)[O-])C3(C)C)c3nc(N)sc3Cl)C(=O)O)cc2)cn1CCCN [Example 49, (S)-3-((Z)-2-(((S)-2-(4-(3-Amino-1-(3-aminopropyl)-2-methyl-1H-pyrazol-2-ium-4-yl)phenoxy)-1-carboxyethoxy)imino)-2-(2-amino-5-chlorothiazol-4-yl)acetamido)-2,2-dimethyl-4-oxoazetidin-1-yl sulfate] | 0.7813 µM | 6.25 µM |
| Cc1c(-c2ccc(OC[C@H](O/N=C(\C(=O)N[C@@H]3C(=O)N(OS(=O)(=O)O)C3(C)C)c3csc(N)n3)C(=O)O)cc2)c(C)[n+](C)n1CCCN.O=C([O-])C(F)(F)F [Example 20, 1-(3-aminopropyl)-4-(4-((S)-2-((((Z)-1-(2-aminothiazol-4-yl)-2-(((S)-2,2-dimethyl-4-oxo-1-(sulfooxy)azetidin-3-yl)amino)-2-oxo-ethylidene)amino)oxy)-2-carboxyethoxy)phenyl)-2,3,5-trimethyl-1H-pyrazol-2-ium 2,2,2-trifluoroacetate] | 0.3906 µM | 6.25 µM |
| C[n+]1cc(-c2ccc(OC[C@](C)(O/N=C(\C(=O)N[C@@H]3C(=O)N(OS(=O)(=O)O)C3(C)C)c3csc(N)n3)C(=O)O)cc2)cn1CCCN (single isomer, unassigned) [Example 23B, 2,2,2-trifluoroacetate] | 3.125 µM | 25 µM |
| CC1(C)[C@H](NC(=O)/C(=N\O[C@@H](COc2ccc(-c3cn(CCCN)[n+](CC(F)CN)c3)cc2)C(=O)O)c2csc(N)n2)C(=O)N1OS(=O)(=O)[O-] (single isomer, unassigned) [Example 120] | 0.1953 µM | 3.125 µM |
| Cn1c(-c2ccc(OC[C@](C)(O/N=C(\C(=O)N[C@@H]3C(=O)N(OS(=O)(=O)O)C3(C)C)c3csc(N)n3)C(=O)O)cc2)cn(CCCN)c1=N [Example 107, (S)-3-((Z)-2-((((S)-1-(4-(1-(3-aminopropyl)-2-imino-3-methyl-2,3-dihydro-1H-imidazol-4-yl)phenoxy)-2-carboxypropan-2-yl)oxy)imino)-2-(2-aminothiazol-4-yl)acetamido)-2,2-dimethyl-4-oxoazetidin-1-yl sulfate] | 6.25 µM | 50 µM |
| C[n+]1cc(-c2ccc(OC[C@H](O/N=C(\C(=O)N[C@@H]3C(=O)N(OS(=O)(=O)[O-])C3(C)C)c3csc(N)n3)C(=O)O)nn2)cn1CCCN [Example 106, (S)-3-((Z)-2-(((S)-2-((6-(1-(3-aminopropyl)-2-methyl-1H-pyrazol-2-ium-4-yl)pyridazin-3-yl)oxy)-1-carboxyethoxy)imino)-2-(2-aminothiazol-4-yl)acetamido)-2,2-dimethyl-4-oxoazetidin-1-yl sulfate] | 50 µM | 100 µM |
| C[n+]1cc(-c2ccc(OCC(O/N=C(\C(=O)N[C@@H]3C(=O)N(OS(=O)(=O)O)C3(C)C)c3csc(N)n3)P(=O)(O)O)cc2)cn1CCCN (stereo partly drawn) [Example 40, (3S)-3-((Z)-2-((2-(4-(1-(3-aminopropyl)-2-methyl-1H-pyrazol-2-ium-4-yl)phenoxy)-1-phosphonoethoxy)imino)-2-(2-aminothiazol-4-yl)acetamido)-2,2-dimethyl-4-oxoazetidin-1-yl sulfate] | 3.125 µM | 50 µM |
| C[n+]1cc(-c2ccc(OC[C@H](O/N=C(\C(=O)N[C@@H]3C(=O)N(OS(=O)(=O)[O-])C3(C)C)c3nc(N)sc3Cl)C(=O)O)cc2F)ccc1NCCN [Example 69, (S)-3-((Z)-2-(2-amino-5-chlorothiazol-4-yl)-2-(((S)-2-(4-(6-((2-aminoethyl)amino)-1-methylpyridin-1-ium-3-yl)-3-fluorophenoxy)-1-carboxyethoxy)imino)acetamido)-2,2-dimethyl-4-oxoazetidin-1-yl sulfate] | 0.3906 µM | 3.125 µM |
| CC1(C)[C@H](NC(=O)/C(=N\O[C@@](C)(COc2ccc(C3CN=C(NCCN)NC3)cc2)C(=O)O)c2csc(N)n2)C(=O)N1OS(=O)(=O)O (stereo partly drawn) [Example 95, (2S)-3-(4-(2-((2-aminoethyl)amino)-1,4,5,6-tetrahydropyrimidin-5-yl)phenoxy)-2-((((Z)-1-(2-aminothiazol-4-yl)-2-(((S)-2,2-dimethyl-4-oxo-1-(sulfooxy)azetidin-3-yl)amino)-2-oxoethylidene)amino)oxy)-2-methylpropanoic acid] | 0.3906 µM | 3.125 µM |
| CC1(C)[C@H](NC(=O)/C(=N\O[C@@H](COc2cnc(-n3cc[n+](CCCN)c3)nc2)C(=O)O)c2csc(N)n2)C(=O)N1OS(=O)(=O)[O-] [Example 111, (S)-3-((Z)-2-(((S)-2-((2-(3-(3-aminopropyl)-1H-imidazol-3-ium-1-yl)pyrimidin-5-yl)oxy)-1-carboxyethoxy)imino)-2-(2-aminothiazol-4-yl)acetamido)-2,2-dimethyl-4-oxoazetidin-1-yl sulfate] | 1.563 µM | 50 µM |
| CCOC(=O)[C@H](COc1ccc(-c2cn(CCCN)c(=N)n2C)cc1)O/N=C(\C(=O)N[C@@H]1C(=O)N(OS(=O)(=O)O)C1(C)C)c1csc(N)n1 [Example 116, Ethyl (S)-3-(4-(1-(3-aminopropyl)-2-imino-3-methyl-2,3-dihydro-1H-imidazol-4-yl)phenoxy)-2-((((Z)-1-(2-aminothiazol-4-yl)-2-(((S)-2,2-dimethyl-4-oxo-1-(sulfooxy)azetidin-3-yl)amino)-2-oxoethylidene)amino)oxy)propanoate] | 6.25 µM | 50 µM |
| C[n+]1cc(-c2ccc(OC[C@](C)(O/N=C(\C(=O)N[C@@H]3C(=O)N(OS(=O)(=O)O)C3(C)C)c3csc(N)n3)C(=O)O)cc2)ccc1NCCN [Example 87, (S)-3-((Z)-2-((((S)-1-(4-(6-((2-aminoethyl)amino)-1-methylpyridin-1-ium-3-yl)phenoxy)-2-carboxypropan-2-yl)oxy)imino)-2-(2-aminothiazol-4-yl)acetamido)-2,2-dimethyl-4-oxoazetidin-1-yl sulfate] | 0.1953 µM | 3.125 µM |
| C[n+]1cc(-c2ccc(OC[C@H](O/N=C(\C(=O)N[C@@H]3C(=O)N(OS(=O)(=O)[O-])C3(C)C)c3csc(N)n3)C(=O)O)cc2)cnc1NCCN [Example 77, (S)-3-((Z)-2-(((S)-2-(4-(2-((2-aminoethyl)amino)-1-methylpyrimidin-1-ium-5-yl)phenoxy)-1-carboxyethoxy)imino)-2-(2-aminothiazol-4-yl)acetamido)-2,2-dimethyl-4-oxoazetidin-1-yl sulfate] | 0.3906 µM | 3.125 µM |
| C[C@@H]1[C@H](NC(=O)/C(=N\O[C@@H](COc2ccc(-c3cn(CCCN)[n+](C)c3)cc2)C(=O)O)c2csc(N)n2)C(=O)N1S(=O)(=O)[O-] [Example 9, (2R,3S)-3-((Z)-2-(((S)-2-(4-(1-(3-aminopropyl)-2-methyl-1H-pyrazol-2-ium-4-yl)phenoxy)-1-carboxyethoxy)imino)-2-(2-aminothiazol-4-yl)acetamido)-2-methyl-4-oxoazetidine-1-sulfonate] | 0.3906 µM | 6.25 µM |
| C[n+]1cc(-c2ccc(OC[C@H](O/N=C(\C(=O)N[C@@H]3C(=O)N(OS(=O)(=O)[O-])C3(C)C)c3csc(N)n3)C(=O)O)cc2)ccc1NCC1(O)CNC1 [Example 73, (S)-3-((Z)-2-(2-aminothiazol-4-yl)-2-(((S)-1-carboxy-2-(4-(6-(((3-hydroxyazetidin-3-yl)methyl)amino)-1-methylpyridin-1-ium-3-yl)phenoxy)ethoxy)imino)acetamido)-2,2-dimethyl-4-oxoazetidin-1-yl sulfate] | 0.1953 µM | 3.125 µM |
